According to patent EP1352247B1, “ASSAY METHODS FOR IDENTIFYING COMPOUNDS WHICH MAY PROTECT STRATIFIED SQUAMOUS EPITHELIUM AGAINST DAMAGE BY NOXIOUS SUBSTANCES” (The Administrators of the Tulane Educational Fund, priority 2000, dated 2002):

Legend:
[1] = target: T1, extracellular domain of human Uvomorulin/E-Cadherin (Homo sapiens, UniProt P12830); assay: Human E-cadherin EIA kit: competition with Mab binding to the extracellular domain of E-cadherin; conditions: for % Binding: Mab binding vs vehicle control = 100
T1 construct: the approximately 80 kD extracellular domain of Uvomorulin/E-Cadherin provided in the E-cadherin EIA kit; purchased Zymed Laboratories, San Francisco, CA
T1 sequence (P12830 155-709 limits assumed): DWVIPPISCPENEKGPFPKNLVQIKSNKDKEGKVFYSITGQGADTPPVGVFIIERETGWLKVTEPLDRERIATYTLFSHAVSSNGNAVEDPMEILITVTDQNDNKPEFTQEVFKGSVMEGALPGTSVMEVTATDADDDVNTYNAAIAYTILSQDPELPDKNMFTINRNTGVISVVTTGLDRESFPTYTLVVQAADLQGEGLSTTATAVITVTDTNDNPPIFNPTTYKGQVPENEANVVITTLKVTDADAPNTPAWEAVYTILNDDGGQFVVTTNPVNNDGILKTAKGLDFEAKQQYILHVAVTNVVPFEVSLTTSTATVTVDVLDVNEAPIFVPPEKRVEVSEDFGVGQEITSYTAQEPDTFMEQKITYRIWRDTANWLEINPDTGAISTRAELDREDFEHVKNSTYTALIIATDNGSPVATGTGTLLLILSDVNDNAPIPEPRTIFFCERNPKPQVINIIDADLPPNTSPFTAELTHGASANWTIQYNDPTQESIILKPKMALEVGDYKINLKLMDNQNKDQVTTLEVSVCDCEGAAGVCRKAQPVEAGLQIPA
Text: The kit enables the antigen to be exposed to agents or antibodies prior to exposure to the standard Mab to the extracellular domain of Uvomorulin/E-cadherin. The ability of the agent or antibody to block the binding of the Mab to the extracellular domain of Uvomorulin/E-cadherin can then be used to determine if competition for binding sites on the antigen has occurred. Comparative binding is based on the quantity of binding observed when the Mab to Uvomorulin/E-cadherin is placed in contact with antigen in the absence of prior exposure to test agent or antibody. The experimental control for test agents is vehicle (normal Ringer solution) and for monoclonal or polyclonal antibodies is an equivalent amount of nonspecific immune serum globulin (IgG). The quantity of binding of the Mab to Uvomorulin/E-cadherin to antigen in the absence of test agent or test antibody is labeled as control and whose value is normalized to 100%.
The Human E-cadherin EIA kit (Zymed Laboratories, San Francisco, CA) was used as in the method described in Example 5 to determine binding of test compounds, SITS, SOS, CDDD-1192, CDDD-1193 and 1,3-benzene disulfonic acid (1,3-BDSA) to the approximately 80 kD extracellular domain of Uvomorulin/E-Cadherin provided in the E-cadherin EIA kit. This was done by adding the extracellular domain of human Uvomorulin/E-Cadherin to a solution with varying concentrations of the compounds in the nanomolar to millimolar range or with vehicle (control, normal Ringer solution) for […]. Following incubation for 2 hrs, the solution is added to a solid phase microtiter plate, provided in the EIA kit, to which a mouse monoclonal anti-human Uvomorulin/E-cadherin antibody (Zymed Laboratories, San Francisco, CA) is bound. This permits antigen with epitopes unoccupied by test compound to bind to the plate. After washing the plate with Tris buffer containing 0.1 % Tween-20 (Promega, Madison, Wisconsin) and 5 mM calcium chloride, the second mouse monoclonal anti-human Uvomorulin/E-cadherin antibody labeled with peroxidase is used to tag the bound antigen. After an additional incubation for 1 hr and washing with Tris buffer, the peroxidase is detected with substrate (hydrogen peroxide and tetramethyl-benzidine in buffered solution, as included in the EIA test kit) by incubating for 15 min at room temperature and stopping of the reaction with 1N […]. […] The amount of Uvomorulin/E-cadherin is quantitated by measuring absorbance at 450 nm within an hour following development using an EIA plate reader (Vmax Plate Reader, Molecular Devices, Sunnyvale, CA). The degree of binding of a compound to the extracellular domain of Uvomorulin/E-cadherin is determined by the reduction in antigen detection in the plate exposed to test compound compared to that for the control plate (100%) where no compound was present (Table 2).

esophageal epithelium = conditions: cited from earlier work
[2] = tested on: rabbit esophageal epithelium
Method: Sections of rabbit esophageal epithelium, mounted in Ussing chambers and stabilized for 45 min, were exposed both luminally and serosally to calcium-free solution containing EDTA, 3 mM.
Sections of rabbit esophageal epithelium were mounted in Ussing chambers and exposed luminally to trypsin, 0.01%, in the presence or absence of a calcium-free bathing solution.
Sections of rabbit esophageal epithelium were mounted in Ussing chambers and exposed luminally to either SITS, 4 mM, or vehicle (Ringer) as control for 30 min.

[3] = tested on: rabbit esophageal epithelium; assay: Junctional resealing (recovery of R after calcium restoration or return to isoosmolality) in Ussing chambers; type: cell-based; conditions: luminal 4 mM for 30 min and during calcium-free period; after restoration of calcium (0 mM SITS), n=3
Text: When calcium-containing (normal Ringer) solution was restored to the bathing solutions after 1, 2, or 4 hrs of calcium-free exposure, there was a progressive return of R toward initial baseline values, with complete reversibility observed for tissue exposed to calcium-free solution for 1 hr and 2 hr exposures and an 80% recovery in R for tissue exposed to calcium-free for 4 hrs within 1 hr of restoring calcium to the baths.
Sections of rabbit esophageal epithelium prepared as in Example 1 were exposed luminally and serosally to a calcium-free solution containing 3 mM EDTA to open the junctions as shown by the progressive decline in R to 60±4% and 65±4% of initial R for experimental and control tissues, respectively, by 2 hrs (n = 8 for each group, p > 0.05). Tissues were then treated luminally for 20 min with either 10 µg/ml of a monoclonal antibody (Mab) to Uvomorulin/E-cadherin (Sigma Chemical, St. Louis, MO) or, as control, to 10 µg/ml of nonspecific immune serum globulin (IgG). Following exposure to Mab or IgG, a calcium-containing (normal Ringer) solution was restored to the bathing solutions and the recovery of R monitored over time.
The intercellular junctions of stratified squamous epithelium can also be opened by exposure to hypertonic saline. […]

For O=S(=O)(O)c1cccc(S(=O)(=O)O)c1 [1,3 BDSA, 1,3-benzene disulfonic acid], the “% Binding” value ([1]; agent 4 mM) is listed as 104±3% and the “effect against acid injury” value (esophageal epithelium; 4 mM, as shown in U.S. Patent No. 5,189,056 and 5,374,537) is listed as “ineffective against acid injury”.
For O=S(=O)(O)OCC(OS(=O)(=O)O)C(Oc1ccccc1)c1ccc(N=C=S)cc1 (centres unmarked) [CDDD-1192, disodium 3-(4-isothiocyanatophenyl)-3 phenoxypropane-1,2-disulfate], the “% Binding” value ([1]; agent 0.4 uM) was 103±6% and the “% Binding” value ([1]; agent 4 mM) was 77±13 %.
For O=S(=O)(O)OCC(OS(=O)(=O)O)C(Oc1ccc(N=C=S)cc1)c1ccc(N=C=S)cc1 (centres unmarked) [CDDD-1193, disodium 3-(4-isothiocyanatophenoxy)-3-(4-isothiocyanatophenyl)propane-1,2-disulfate], the “% Binding” value ([1]; agent 40 nM) was 110±6%, the “% Binding” value ([1]; agent 40 uM) was 83±3 % and the “% Binding” value ([1]; agent 4 mM) was 38±0.75 %.
With O=C(O)CN(CCN(CC(=O)O)CC(=O)O)CC(=O)O [EDTA] the “effect on R” value ([2]; 3 mM alone, over the described time frame (up to 4 hrs)) was “no effect on R”.
For CC(=O)Nc1ccc(C=Cc2ccc(N=C=S)cc2S(=O)(=O)O)c(S(=O)(=O)O)c1 [SITS, 4-acetamido-4'-isothiocyano-2,2'-stilbene disulfonate], the “% Binding” value ([1]; agent 40 uM) was 77±3 %, the “% Binding” value ([1]; agent 4 mM) was 26±3 % and the “% Binding” value ([1]; agent 8 mM) was 20±3 %. The “recovery of R” value [3] was 75±3% and the “R declined to” value ([2]; calcium-free solution (3 mM EDTA) with 4 mM SITS, over 2 hr) was 68±3%.
For O=S(=O)(O)OC[C@H]1O[C@@](COS(=O)(=O)O)(O[C@H]2O[C@H](COS(=O)(=O)O)[C@@H](OS(=O)(=O)O)[C@H](OS(=O)(=O)O)[C@H]2OS(=O)(=O)O)[C@@H](OS(=O)(=O)O)[C@@H]1OS(=O)(=O)O [SOS, sucrose octasulfate], the “binding to the extracellular domain of Uvomorulin/E-cadherin / inhibition of Mab binding (in words)” value [1] was “dose-dependently binds”, the “% Binding” value ([1]; agent 4 mM) was 83±0.3 % and the “% Binding” value ([1]; agent 10 mM) was 76±0.3 %. The “protection against acid-induced injury, reversibility” value (esophageal epithelium) was “irreversibly protect”.
